± gives the standard deviation of the averaged measurements.
Columns and labels:
Assay in all cases: normalised growth rate inhibition (GR value) relative to DMSO control (GR (1 = untreated growth, 0 = cytostasis, <0 = cytotoxic)); higher = less growth inhibition
Conditions in all cases: 72 h
[1] = test system: BT20
Method: (§1)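 Breast cancer cell lines (BT-20, Hs 578T, MCF 10A, MCF7, MDA-MB-231, SK-BR-3) were plated in 384-well plates and treated 24 h later with drugs at six concentrations (0.04-10 µM). Viable cells were counted by Hoechst/dead-cell-stain imaging at 0 and 72 h. Counts were normalised to DMSO controls on the same plate to give the relative cell count and the growth-rate inhibition (GR) value; technical plate triplicates were averaged for each biological replicate.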

[2] = test system: MCF10A
Method: as §1

[3] = test system: MDAMB231
Method: as §1

[4] = test system: MCF7
Method: as §1

[5] = test system: SKBR3
Method: as §1

[6] = test system: HS578T
Method: as §1

| Compound | normalised growth rate inhibition ([1]; 0.04 µM) | normalised growth rate inhibition ([1]; 0.12 µM) | normalised growth rate inhibition ([1]; 0.37 µM) | normalised growth rate inhibition ([1]; 1.11 µM) | normalised growth rate inhibition ([1]; 3.33 µM) | normalised growth rate inhibition ([1]; 10 µM) | normalised growth rate inhibition ([2]; 0.04 µM) | normalised growth rate inhibition ([2]; 0.12 µM) | normalised growth rate inhibition ([2]; 0.37 µM) | normalised growth rate inhibition ([2]; 1.11 µM) | normalised growth rate inhibition ([2]; 3.33 µM) | normalised growth rate inhibition ([2]; 10 µM) | normalised growth rate inhibition ([3]; 0.04 µM) | normalised growth rate inhibition ([3]; 0.12 µM) | normalised growth rate inhibition ([3]; 0.37 µM) | normalised growth rate inhibition ([3]; 1.11 µM) | normalised growth rate inhibition ([3]; 3.33 µM) | normalised growth rate inhibition ([3]; 10 µM) | normalised growth rate inhibition ([4]; 0.04 µM) | normalised growth rate inhibition ([4]; 0.12 µM) | normalised growth rate inhibition ([4]; 0.37 µM) | normalised growth rate inhibition ([4]; 1.11 µM) | normalised growth rate inhibition ([4]; 3.33 µM) | normalised growth rate inhibition ([4]; 10 µM) | normalised growth rate inhibition ([5]; 0.04 µM) | normalised growth rate inhibition ([5]; 0.12 µM) | normalised growth rate inhibition ([5]; 0.37 µM) | normalised growth rate inhibition ([5]; 1.11 µM) | normalised growth rate inhibition ([5]; 3.33 µM) | normalised growth rate inhibition ([5]; 10 µM) | normalised growth rate inhibition ([6]; 0.04 µM) | normalised growth rate inhibition ([6]; 0.12 µM) | normalised growth rate inhibition ([6]; 0.37 µM) | normalised growth rate inhibition ([6]; 1.11 µM) | normalised growth rate inhibition ([6]; 3.33 µM) | normalised growth rate inhibition ([6]; 10 µM) |
| --- | --- | --- | --- | --- | --- | --- | --- | --- | --- | --- | --- | --- | --- | --- | --- | --- | --- | --- | --- | --- | --- | --- | --- | --- | --- | --- | --- | --- | --- | --- | --- | --- | --- | --- | --- | --- |
| CN(C)C/C=C/C(=O)Nc1cc2c(Nc3ccc(F)c(Cl)c3)ncnc2cc1O[C@H]1CCOC1 [afatinib] | 0.704 ± 0.031 | 0.789 ± 0.017 | 0.814 ± 0.027 | 0.868 ± 0.059 | 0.855 ± 0.035 | 0.0471 ± 0.25 | 0.034 ± 0.14 | 0.0299 ± 0.097 | 0.034 ± 0.07 | 0.0532 ± 0.05 | 0.058 ± 0.067 | 0.0354 ± 0.032 | 0.845 ± 0.14 | 0.873 ± 0.047 | 0.755 ± 0.041 | 0.641 ± 0.09 | 0.537 ± 0.043 | -0.205 ± 0.11 | 0.784 ± 0.14 | 0.81 ± 0.15 | 0.865 ± 0.079 | 0.736 ± 0.11 | 0.603 ± 0.15 | -0.239 ± 0.083 | -0.137 ± 0.2 | -0.13 ± 0.17 | -0.117 ± 0.16 | -0.0678 ± 0.2 | -0.0514 ± 0.15 | -0.171 ± 0.11 | 0.9498 ± 0.0056 | 0.944 ± 0.032 | 0.944 ± 0.021 | 0.899 ± 0.025 | 0.852 ± 0.059 | -0.152 ± 0.04 |
| CN1CC[C@H](c2c(O)cc(O)c3c(=O)cc(-c4ccccc4Cl)oc23)[C@H](O)C1 [alvocidib] | 0.324 ± 0.32 | -0.0878 ± 0.2 | -0.251 ± 0.083 | -0.35 ± 0.19 | -0.339 ± 0.2 | -0.365 ± 0.21 | 0.197 ± 0.27 | -0.2 ± 0.16 | -0.288 ± 0.23 | -0.281 ± 0.24 | -0.281 ± 0.25 | -0.263 ± 0.22 | 0.184 ± 0.25 | -0.239 ± 0.12 | -0.273 ± 0.13 | -0.273 ± 0.16 | -0.282 ± 0.14 | -0.287 ± 0.16 | -0.0866 ± 0.19 | -0.328 ± 0.037 | -0.335 ± 0.068 | -0.359 ± 0.057 | -0.361 ± 0.077 | -0.364 ± 0.07 | 0.102 ± 0.038 | -0.287 ± 0.2 | -0.32 ± 0.26 | -0.367 ± 0.21 | -0.357 ± 0.22 | -0.391 ± 0.21 | 0.48 ± 0.23 | -0.156 ± 0.1 | -0.206 ± 0.082 | -0.196 ± 0.11 | -0.193 ± 0.098 | -0.188 ± 0.11 |
| Cc1cc2c(F)c(Oc3ncnn4cc(OC[C@@H](C)O)c(C)c34)ccc2[nH]1 [brivanib] | 0.949 ± 0.039 | 0.935 ± 0.016 | 0.956 ± 0.012 | 0.928 ± 0.024 | 0.925 ± 0.047 | 0.798 ± 0.03 | 0.992 ± 0.017 | 0.977 ± 0.023 | 0.969 ± 0.016 | 0.883 ± 0.043 | 0.74 ± 0.071 | 0.316 ± 0.043 | 0.902 ± 0.11 | 0.892 ± 0.081 | 0.91 ± 0.062 | 0.923 ± 0.062 | 0.895 ± 0.1 | 0.667 ± 0.094 | 0.902 ± 0.093 | 0.864 ± 0.064 | 0.898 ± 0.079 | 0.908 ± 0.062 | 0.949 ± 0.029 | 0.86 ± 0.035 | 0.811 ± 0.14 | 0.798 ± 0.17 | 0.807 ± 0.15 | 0.861 ± 0.11 | 0.85 ± 0.11 | 0.822 ± 0.1 | 0.963 ± 0.016 | 0.952 ± 0.02 | 0.963 ± 0.011 | 0.9364 ± 0.0061 | 0.9281 ± 0.0053 | 0.797 ± 0.055 |

Source: the supplement of paper PMC5662764
